The target in the assay is T1, Aurora A (Homo sapiens, UniProt O14965).
T1 construct: gene AURKA
T1 sequence (O14965 1-403): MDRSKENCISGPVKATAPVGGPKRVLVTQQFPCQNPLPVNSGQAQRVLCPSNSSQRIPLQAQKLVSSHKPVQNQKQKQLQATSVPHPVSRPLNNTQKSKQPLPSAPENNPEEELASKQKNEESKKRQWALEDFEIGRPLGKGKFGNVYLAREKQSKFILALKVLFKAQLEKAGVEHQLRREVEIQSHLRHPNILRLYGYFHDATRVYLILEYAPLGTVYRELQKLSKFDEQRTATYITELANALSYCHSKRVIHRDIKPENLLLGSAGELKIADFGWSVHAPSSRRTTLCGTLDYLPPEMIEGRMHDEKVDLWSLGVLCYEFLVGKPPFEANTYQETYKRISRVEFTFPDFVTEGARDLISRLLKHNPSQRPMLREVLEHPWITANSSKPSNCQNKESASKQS
As to the kind of experiment: Z-LYTE kinase assay (peptide/kinase mixture with ATP, fluorescence). The format is biochemical.
With `CSc1ncn(C)c1C[C@@H]1N[C@H](C(=O)O)Cc2c1[nH]c1ccc(O)cc21` [compound 4, hainanerectamine C], the IC50 is 49.9 µM.

For `O=C(O)[C@@H]1Cc2c([nH]c3ccc(O)cc23)[C@H](Cc2c[nH]cn2)N1` [compound 3, (−)-(1R^*, 3R^*)-6-hydroxy-1-(4-methylene-1H-imidazole)-2,3,4,9-tetrahydro-1H-β-carboline-3-carboxylic acid], the IC50 was 43.5 µM.

On to `C/C=C(/C=O)c1c[nH]c2ccc(O)cc12` [compound 2, hainanerectamine B], for which the IC50 was 122 µM.
